We go through 8 compounds from EPA's CvTdb concentration-time database.

Data set [1] deals with Rat. Description: concentration in liver after dosing. The following applies: 6 h; dosed: Fluorotelomer alcohol 8+2; 24 mg/kg; oral; Male; Harlan Sprague Dawley.
In data set [2] the test system is Rat. Description: concentration in plasma after dosing. The following applies: dosed: Fluorotelomer alcohol 8+2, 40 mg/kg, iv, Male, F344.
Data set [3] relates to Rat. Briefly: concentration in plasma after dosing. The following applies: 0.5 h; dosed: Wyeth-14643; 5.0 mg/kg; oral; Male; Sprague-Dawley.
In data set [4] the test system is Rat. Briefly: concentration in plasma after dosing. The following applies: 1 h; dosed: Wyeth-14643; 1.0 mg/kg; oral; Male; Sprague-Dawley.
The subject of data set [5] is Rat. Description: concentration in plasma after dosing. The following applies: dosed: Wyeth-14643, 2.0 mg/kg, oral, Male, Sprague-Dawley.
Data set [6] deals with Rat. Description: concentration in plasma after dosing. The following applies: 2 h; dosed: Wyeth-14643; 2.0 mg/kg; iv; Male; Sprague-Dawley.
The subject of data set [7] is Rat. Briefly: concentration in plasma after dosing. The following applies: dosed: Wyeth-14643, 5.0 mg/kg, oral, Male, Sprague-Dawley.
For data set [8], the system named is Rat. Description: concentration in plasma after dosing. The following applies: 0.5 h; dosed: Wyeth-14643; 1.0 mg/kg; oral; Male; Sprague-Dawley.
For data set [9], the system named is Rat. Description: concentration in plasma after dosing. The following applies: 6 h; dosed: Di-n-butyl phthalate; 50 mg/kg; oral; Male; Sprague-Dawley.
Data set [10] has as its system Rat. Description: concentration in plasma after dosing. The following applies: 0.5 h; dosed: Di-n-butyl phthalate; 50 mg/kg; oral; Male; Sprague-Dawley.
Data set [11] concerns Rat. Description: concentration in plasma after dosing. The following applies: 15 h; dosed: Di-n-butyl phthalate; 100 mg/kg; oral; Male; Sprague-Dawley.
For data set [12], the system named is Rat. Description: concentration in plasma after dosing. The following applies: dosed: dichloroacetic acid, 100 mg/kg, oral, Male, F344.
Data set [13] deals with Rat. Briefly: concentration in plasma after dosing. The following applies: 2 min; dosed: dichloroacetic acid; 10 mg/kg; iv; Male; F344.
Data set [14] has as its system Rat. Briefly: concentration in plasma after dosing. The following applies: 20 min; dosed: dichloroacetic acid; 10 mg/kg; iv; Male; F344.
Data set [15] deals with Rat. Briefly: concentration in plasma after dosing. The following applies: dosed: dichloroacetic acid, 100 mg/kg, oral, Male, F344. The source holds these as a separate data set.
Data set [16] relates to Rat. Briefly: concentration in kidney after dosing. The following applies: 864 h; dosed: Perfluorodecanoic acid; 10 mg/kg; oral; Male; Harlan Sprague Dawley.
For data set [17], the system named is Rat. Description: concentration in liver after dosing. The following applies: 1 h; dosed: Perfluorodecanoic acid; 10 mg/kg; oral; Female; Harlan Sprague Dawley.
Data set [18] has as its system Rat. Description: concentration in liver after dosing. The following applies: 1848 h; dosed: Perfluorodecanoic acid; 10 mg/kg; oral; Male; Harlan Sprague Dawley.
Data set [19] relates to Rat. Description: concentration in kidney after dosing. The following applies: 24 h; dosed: Perfluorodecanoic acid; 10 mg/kg; oral; Male; Harlan Sprague Dawley.
The subject of data set [20] is Rat. Briefly: concentration in thymus after dosing. The following applies: 1 h; dosed: Thiodiglycolic Acid; 20 mg/kg; iv; Female; Harlan Sprague Dawley.
The test system of data set [21] is Rat. Description: concentration in plasma after dosing. The following applies: 40 min; dosed: Thiodiglycolic Acid; 20 mg/kg; iv; Male; Harlan Sprague Dawley.
For data set [22], the system named is Rat. Briefly: concentration in heart after dosing. The following applies: 20 min; dosed: Thiodiglycolic Acid; 20 mg/kg; iv; Female; F344.
Data set [23] concerns Rat. Description: concentration in thymus after dosing. The following applies: 3 h; dosed: Thiodiglycolic Acid; 20 mg/kg; iv; Female; Harlan Sprague Dawley.
Data set [24] has as its system Rat. Description: concentration in plasma after dosing. The following applies: 40 min; dosed: Thiodiglycolic Acid; 20 mg/kg; iv; Female; Harlan Sprague Dawley.
For data set [25], the system named is Rat. Briefly: concentration in plasma after dosing. The following applies: 4 h; dosed: Thiodiglycolic Acid; 20 mg/kg; iv; Male; Harlan Sprague Dawley.
Data set [26] concerns Rat. Briefly: concentration in plasma after dosing. The following applies: 1.5 h; dosed: Primidone; 80 mg/kg; oral; Male; F344.
Data set [27] has as its system Rat. Description: concentration in plasma after dosing. The following applies: 6 h; dosed: Primidone; 30 mg/kg; oral; Male; F344.
For data set [28], the system named is Rat. Description: concentration in plasma after dosing. The following applies: 18 h; dosed: Primidone; 80 mg/kg; oral; Male; F344.
The test system of data set [29] is Rat. Briefly: concentration in plasma after dosing. The following applies: 1.5 h; dosed: Primidone; 80 mg/kg; oral; Female; F344.
Data set [30] deals with Rat. Briefly: concentration in plasma after dosing. The following applies: 0.25 h; dosed: Primidone; 30 mg/kg; oral; Male; F344.
Data set [31] deals with Rat. Description: concentration in plasma after dosing. The following applies: 6 h; dosed: Primidone; 80 mg/kg; oral; Male; F344.
Data set [32] concerns Rat. Briefly: concentration in liver after dosing. The following applies: 20 min; dosed: Bis 2-Chloroethoxy Methane; 20 mg/kg; iv; Female; F344.
For data set [33], the system named is Rat. Description: concentration in heart after dosing. The following applies: 40 min; dosed: Bis 2-Chloroethoxy Methane; 20 mg/kg; iv; Female; F344.
For data set [34], the system named is Rat. Briefly: concentration in liver after dosing. The following applies: 3 h; dosed: Bis 2-Chloroethoxy Methane; 20 mg/kg; iv; Male; F344.
Data set [35] has as its system Rat. Description: concentration in thymus after dosing. The following applies: 5 h; dosed: Bis 2-Chloroethoxy Methane; 20 mg/kg; iv; Female; F344.
Data set [36] deals with Rat. Description: concentration in plasma after dosing. The following applies: 2 h; dosed: Bis 2-Chloroethoxy Methane; 40 mg/kg; iv; Male; Harlan Sprague Dawley.
Data set [37] relates to Rat. Briefly: concentration in thymus after dosing. The following applies: 2 h; dosed: Bis 2-Chloroethoxy Methane; 20 mg/kg; iv; Male; F344.
Data set [38] relates to Rat. Briefly: concentration in thymus after dosing. The following applies: 10 min; dosed: Bis 2-Chloroethoxy Methane; 20 mg/kg; iv; Male; F344.

Structures are written as SMILES.

Compound `OCCC(F)(F)C(F)(F)C(F)(F)C(F)(F)C(F)(F)C(F)(F)C(F)(F)C(F)(F)F` [Fluorotelomer alcohol 8+2] gave a concentration in liver in [1] of 1220 ng/g. Also, the concentration in plasma in [2] (5 min) was 22400 ng/mL; in [2] (3 h), 516 ng/mL.

With `Cc1cccc(Nc2cc(Cl)nc(SCC(=O)O)n2)c1C`, the concentration in plasma in data set [3] was found to be 3.83 µg/mL; in [4], 0.828 µg/mL; in data set [5] (1 h), 0.904 µg/mL; in data set [5] (6 h), 0.2 µg/mL; in data set [6], 0.87 µg/mL; in data set [7] (5 min) it was 0.572 µg/mL. The concentration in plasma in data set [7] (8 h) came to 0.255 µg/mL; in [8], 1.21 µg/mL.

Regarding `CCCCOC(=O)c1ccccc1C(=O)O` [Mono-n-butyl phthalate], the concentration in plasma in [9] was 2.06 µg/mL; in [10], 20.5 µg/mL; in [11], 0.9 µg/mL.

Take `O=C(O)C(Cl)Cl` [dichloroacetic acid]: the concentration in plasma in [12] (20 min) came out at 20.4 µg/mL; in data set [12] (8 h), 29.2 µg/mL; in data set [13], 30.4 µg/mL; in [14] it was 2.32 µg/mL; in [15] (5 min), 7.12 µg/mL; in data set [15] (2 h), 41.3 µg/mL.

`O=C(O)C(F)(F)C(F)(F)C(F)(F)C(F)(F)C(F)(F)C(F)(F)C(F)(F)C(F)(F)C(F)(F)F` [Perfluorodecanoic acid]: the concentration in kidney stood at 10600 ng/g in data set [16] and 29300 ng/g in data set [19]. Moreover, the concentration in liver in data set [17] came out at 48900 ng/g; in data set [18], 27600 ng/g.

`O=C(O)CSCC(=O)O` [Thiodiglycolic Acid]: the concentration in thymus in data set [20] is 2580 ng/g; in [23], 986 ng/g. For the same compound, the concentration in plasma in [21] worked out at 3090 ng/mL; in data set [24], 4120 ng/mL; in data set [25], 615 ng/mL. Further, the concentration in heart in data set [22] was determined as 3600 ng/g.

For the compound `CCC1(c2ccccc2)C(=O)NC(=O)NC1=O` [Phenobarbital], the concentration in plasma in [26] is 3.1 µg/mL; in [27], 3.11 µg/mL; in data set [28], 3.11 µg/mL; in data set [29] it was 0.8 µg/mL; in [30], 0.34 µg/mL; in [31], 5.32 µg/mL.

For the compound `ClCCOCOCCCl` [Bis 2-Chloroethoxy Methane], the concentration in liver in data set [32] is 1090 ng/g; in [34], 104 ng/g. Further, the concentration in heart in [33] was determined as 3630 ng/g. For the same compound, the concentration in thymus in data set [35] was found to be 31.7 ng/g; in data set [37], 153 ng/g; in [38], 45200 ng/g. This compound came in with a concentration in plasma in data set [36] of 1290 ng/mL.
